Assay results taken from PubChem BioAssay (NCI).
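Each compound was tested at five concentrations against cells in 96-well plates for 48 hours. Here, GI50 denotes the concentration required for 50% inhibition of growth. TGI is the concentration that stops growth completely.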

Key:
Test in all cases: NCI anticancer screen, dose series, 48 h
[1] = test system: DU-145 prostate
[2] = test system: HCC-2998 colon
[3] = test system: IGROV1 ovarian
[4] = test system: MCF7 breast
[5] = test system: NCI-H522 lung
[6] = test system: OVCAR-8 ovarian
[7] = test system: PC-3 prostate
[8] = test system: SK-MEL-28 melanoma
[9] = test system: SK-MEL-5 melanoma
[10] = test system: RXF 393 renal

| Compound | TGI [1] | TGI [2] | TGI [3] | TGI [4] | TGI [5] | TGI [6] | TGI [7] | TGI [8] | TGI [9] | TGI [10] | GI50 [1] | GI50 [2] | GI50 [6] | GI50 [7] | GI50 [10] | GI50 [8] | GI50 [9] |
| --- | --- | --- | --- | --- | --- | --- | --- | --- | --- | --- | --- | --- | --- | --- | --- | --- | --- |
| O=C(O)C12C3C4(C(=O)O)C1C1(C(=O)O)C2C3(C(=O)O)C41 (centres undefined) | > 100 µM | > 100 µM | > 100 µM | > 100 µM | > 100 µM | > 100 µM | > 100 µM | > 100 µM | > 100 µM | – | – | – | – | – | – | – | – |
| CN(C)CN1C(=O)/C(=N\n2c(-c3ccncc3)n[nH]c2=S)c2ccccc21 | 81.6 µM | – | > 100 µM | > 100 µM | 45.1 µM | 65.2 µM | > 100 µM | > 100 µM | > 100 µM | 32.4 µM | – | – | – | – | – | – | – |
| O=C(O)Cn1c[n+](NC(=O)Cc2ccccc2)cn1 | > 10 µM | > 10 µM | > 10 µM | > 10 µM | > 10 µM | > 10 µM | – | > 10 µM | > 10 µM | – | – | – | – | – | – | – | – |
| CC(Br)CN(CC(C)Br)c1ccc2c(c1)Cc1ccccc1-2 (centres undefined) | 23 µM | – | 20.7 µM | 19.6 µM | 21.2 µM | 25.2 µM | 22.7 µM | 37.3 µM | 25.2 µM | 28 µM | – | – | – | – | – | – | – |
| Oc1ccc(C[C@@H]2CN[C@H](Cc3ccc(O)c(Br)c3)CN2)cc1 | > 100 µM | > 100 µM | > 100 µM | > 100 µM | > 100 µM | > 100 µM | > 100 µM | > 100 µM | – | > 100 µM | – | – | – | – | – | – | – |
| O=C(/C=C/CC(O)(c1ccccc1)c1ccccc1)Nc1ccccc1Cl | – | > 100 µM | – | – | > 100 µM | > 100 µM | – | > 100 µM | > 100 µM | – | – | – | – | – | – | – | – |
| CCc1nc2c([nH]1)C(=O)c1ccccc1C2=O | – | > 100 µM | – | – | > 100 µM | > 100 µM | – | > 100 µM | – | > 100 µM | – | – | – | – | – | – | – |
| CC(=O)N=S(NC(=O)c1ccc(C)cc1)C(Cl)(Cl)Cl (centres undefined) | > 100 µM | 30.5 µM | 93.4 µM | > 100 µM | – | 33.1 µM | > 100 µM | > 100 µM | 77.9 µM | > 100 µM | – | – | – | – | – | – | – |
| COc1ccc(C(=O)/C=C/c2ccc(OCCCCCCCCCCOc3ccc(/C=C/C(=O)c4ccc(OC)c(OC)c4)cc3)cc2)c(OC)c1 | > 100 µM | > 100 µM | > 100 µM | > 100 µM | – | > 100 µM | > 100 µM | > 100 µM | > 100 µM | > 100 µM | – | – | – | – | – | – | – |
| CC1=[N+]([O-])C2(CCCC2)N(O)C1(C)C | > 100 µM | > 100 µM | > 100 µM | > 100 µM | – | > 100 µM | > 100 µM | > 100 µM | > 100 µM | > 100 µM | – | – | – | – | – | – | – |
| COc1ccccc1Cn1c2c(c3cc(O)ccc31)C(=O)c1ccccc1C2=O | > 100 µM | – | > 100 µM | 96.7 µM | – | 61.9 µM | 53.5 µM | > 100 µM | > 100 µM | 14.3 µM | – | – | – | – | – | – | – |
| COc1cc2c3cc1Oc1cc(ccc1O)C[C@@H]1c4c(cc(OC)c(O)c4Oc4ccc(cc4)C[C@@H]3[N+](C)(C)CC2)CC[N+]1(C)C | > 100 µM | – | > 100 µM | > 100 µM | > 100 µM | > 100 µM | > 100 µM | > 100 µM | > 100 µM | 47 µM | – | – | – | – | – | – | – |
| CCc1ccc(OCc2ccccc2C(=O)Nc2ccc3nc(C)cc(N)c3c2)cc1 | 3.17 µM | 3.24 µM | – | – | – | 4.61 µM | 2.93 µM | 3.29 µM | 2.91 µM | 2.75 µM | 1.68 µM | 1.64 µM | 1.68 µM | 1.52 µM | 1.32 µM | 1.75 µM | 1.54 µM |
| O=C1CN(c2ccccc2)C(=O)C1C(=O)Nc1ccc(Cl)c(Cl)c1 (centres undefined) | – | – | 14.9 µM | – | 6.48 µM | – | – | 21.4 µM | 13.2 µM | – | – | – | – | – | – | – | – |
| Nc1cc2nc(-c3ccccc3)cn2cn1 | > 100 µM | – | – | > 100 µM | – | > 100 µM | > 100 µM | > 100 µM | > 100 µM | > 100 µM | – | – | – | – | – | – | – |
| CC12CCC(=O)[C@@]1(C)CCCC2=O (some centres undefined) | > 100 µM | > 100 µM | > 100 µM | > 100 µM | > 100 µM | > 100 µM | > 100 µM | > 100 µM | – | > 100 µM | – | – | – | – | – | – | – |
| Cn1c(=O)c2[nH]c(Nc3cccc(Cl)c3)nc2n(C)c1=O | > 10 µM | > 10 µM | > 10 µM | > 10 µM | – | > 10 µM | > 10 µM | > 10 µM | > 10 µM | 8.76 µM | – | – | – | – | – | – | – |
| O=C(O[C@@H](/C=C/c1ccccc1)P1(=O)N(Cc2ccccc2)[C@@H]2CCCC[C@H]2N1Cc1ccccc1)c1ccccc1 | – | > 100 µM | 15.5 µM | > 100 µM | > 100 µM | > 100 µM | > 100 µM | > 100 µM | 4.16 µM | – | – | – | – | – | – | – | – |
